Measurements taken from PMC12383815 (Biomolecules, 2025).
Where a name gives a salt, the structure may show the parent alone. Read-outs that look alike come from different tables or passages of the source.

Assays:
[1] = target: T1, shikimate dehydrogenase (SaSDH) (Staphylococcus aureus, UniProt Q6GGA5); assay: biochemical; design: SaSDH enzyme activity inhibition screening at 500 uM, 10% DMSO
T1 construct: gene aroE
T1 sequence (Q6GGA5 1-268): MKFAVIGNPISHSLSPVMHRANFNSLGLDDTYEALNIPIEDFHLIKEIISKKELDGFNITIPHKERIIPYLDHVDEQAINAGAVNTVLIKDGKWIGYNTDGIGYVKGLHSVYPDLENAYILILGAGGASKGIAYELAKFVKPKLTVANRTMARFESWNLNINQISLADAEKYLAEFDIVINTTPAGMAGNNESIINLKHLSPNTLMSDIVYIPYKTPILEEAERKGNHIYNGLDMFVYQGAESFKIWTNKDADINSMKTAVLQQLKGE
Description: The inhibition percentage was determined by measuring enzyme activity under the conditions previously described by adding each compound from an in-house natural product derivative chemical library (40 compounds) to the reaction mixture at quantities of 500 μM; these compounds had been previously dissolved in Dimethyl Sulfoxide (DMSO), keeping 10% DMSO as final concentration. The percentage inhibition was calculated by adjusting the data from the following equation [33]: Inhibition %=A0−A1/A0 ×100 where the following definitions are used: In the search for new SaSDH inhibitors, an in-house chemical library of 40 natural product derivatives was screened against SaSDH activity. Our findings indicate that among the 40 molecules evaluated, the compounds phloridzin (93% of inhibition), rutin (87% of inhibition), and caffeic acid (70% of inhibition) inhibited SaSDH using a 500 µM concentration.

[2] = target: T2, shikimate dehydrogenase (SaSDH) (Staphylococcus aureus, UniProt Q6GGA5); assay: recombinant enzyme activity, NADPH formation at […] nm, dose-response; progress-curve kinetics; assay type: biochemical
T2 construct: gene aroE

COc1cccc(C(=O)O)c1 [3-Methoxybenzoic acid]
inhibition at 500 µM [1]: 2%

O=C1O[C@H]([C@@H](O)CO)C(O)=C1O [L-Ascorbic acid]
inhibition at 500 µM [1]: 4.5%

CC1=CC(=O)c2ccccc2C1=O [Menadione]
inhibition at 500 µM [1]: 17%

COc1cc(C(=O)OCCCCNC(=N)N)cc(OC)c1O [Leonurine]
inhibition at 500 µM [1]: 13%

O=C(Cl)c1nc2ccccc2s1 [Benzothiazole-2-carbonyl chloride]
inhibition at 500 µM [1]: 14%

Cc1ncc(CO)c(CO)c1O [Pyridoxine]
inhibition at 500 µM [1]: 28%

N#Cc1cnc(N)s1 [2-Aminothiazole-5-carbonitrile]
inhibition at 500 µM [1]: 17%

C[C@@H]1O[C@@H](OC[C@H]2O[C@@H](Oc3c(-c4ccc(O)c(O)c4)oc4cc(O)cc(O)c4c3=O)[C@H](O)[C@@H](O)[C@@H]2O)[C@H](O)[C@H](O)[C@H]1O [Rutin]
IC50 ([2]; read-out: IC50): 165 µM

NC(=O)c1cccnc1 [Nicotinamide]
inhibition at 500 µM [1]: 5%

O=c1[nH]cc(Br)cc1[N+](=O)[O-] [5-Bromo-2-hydroxy-3-nitropyridine]
inhibition at 500 µM [1]: 18%

COC(=O)c1ccc(OC)cc1O [Methyl 4-methoxysalicylate]
inhibition at 500 µM [1]: 10%

O=C(CCc1ccc(O)cc1)c1c(O)cc(O)cc1O[C@@H]1O[C@H](CO)[C@@H](O)[C@H](O)[C@H]1O [Phloridzin]
IC50 [2]: 140 µM

O=C1CNCCN1 [2-Oxopiperazine]
inhibition at 500 µM [1]: 13%

COc1ccc(-c2coc3cc(O)ccc3c2=O)cc1 [Formononetin]
inhibition at 500 µM [1]: 13%

O=C(O)/C=C/c1ccc(O)c(O)c1 [Caffeic acid]
IC50 [2]: 240 µM

Clc1ccnc(Cl)c1 [2,4-Dichloropyridine]
inhibition at 500 µM [1]: 19%

Nc1nc(-c2ccc3c(c2)CCCC3)cs1 [2-Amino-4-(5,6,7,8-tetrahydronaphthalen-2-yl)thiazole]
inhibition at 500 µM [1]: 8%

Nc1ccc(Br)cn1 [2-Amino-5-bromopyridine]
inhibition at 500 µM [1]: 8%

C1SCC2OC12 (centres unmarked) [3,4-Epoxy-tetrahydrothiophene]
inhibition at 500 µM [1]: 9%

O=C(O)c1cccnc1 [Nicotinic acid]
inhibition at 500 µM [1]: 20%

COC(=O)c1nc[nH]c1C(=O)OC [Dimethyl imidazole-4,5-dicarboxylate]
inhibition at 500 µM [1]: 18%

Fc1ccc(Cl)nc1 [2-Chloro-5-fluoropyridine]
inhibition at 500 µM [1]: 18%

Cc1ncc(CO)c(C)c1O [4-Deoxypyridoxine hydrochloride]
inhibition at 500 µM [1]: 12%

Cn1ccnc1S(=O)(=O)Cl [1-Methylimidazole-2-sulfonyl chloride]
inhibition at 500 µM [1]: 13%

O=Cc1c[nH]c2c1ccc1ccccc12 [1H-Benzo[g]indole-3-carboxaldehyde]
inhibition at 500 µM [1]: 19%

FC(F)(F)c1ccc(Br)cn1 [5-Bromo-2-(trifluoromethyl)pyridine]
inhibition at 500 µM [1]: 9%

CC(C)=CCC1=C(O)C(=O)c2ccccc2C1=O [Lapachol]
inhibition at 500 µM [1]: 6%

OC[C@H]1O[C@@H](OCCc2ccc(O)cc2)[C@H](O)[C@@H](O)[C@@H]1O [Salidroside]
inhibition at 500 µM [1]: 27%

Brc1nc2ccccc2[nH]1 [2-Bromo-1H-benzimidazole]
inhibition at 500 µM [1]: 10%
